This is an account of results in PMC4110683 (Chemistry and physics of lipids, 2013).

In brackets after ≈: the same amount, converted by molar mass. Read-outs that look alike come from different tables or passages of the source.

Assay [1] has as its system FCR3 strain of P. falciparum. Particulars: ref Krugliak et al., 1995; cited from earlier work.
Assay [2] has as its system L. donovani promastigotes. As to conditions: cited from earlier work; for Motility of L. donovani promastigotes: at levels of 100 μg/mL, ref Cunningham et al., 1972; for Motility of L. donovani promastigotes / Effectiveness towards L. donovani: in words; for IC50: read-out: IC50 L. donovani promastigotes, 2012; for IC50 / Effectiveness towards L. donovani / EC50 L. donovani promastigotes: ref Carballeira et al.; for Effectiveness towards L. donovani / EC50 L. donovani promastigotes: 2009; for MIC L. donovani promastigotes: ref Chaudhuri et al., 1986.

Assay [3] deals with BALB/c murine macrophages. As to conditions: read-out: Murine macrophages BALB/c IC50; ref Carballeira et al., 2012; cited from earlier work.
Another assay deals with PfFabG (Plasmodium falciparum, UniProt Q8I2S7). Briefly: biochemical.
The target of assay [4] is T1, PfFabI (Plasmodium falciparum, UniProt Q9BH77).
T1 sequence (Q9BH77 22-432): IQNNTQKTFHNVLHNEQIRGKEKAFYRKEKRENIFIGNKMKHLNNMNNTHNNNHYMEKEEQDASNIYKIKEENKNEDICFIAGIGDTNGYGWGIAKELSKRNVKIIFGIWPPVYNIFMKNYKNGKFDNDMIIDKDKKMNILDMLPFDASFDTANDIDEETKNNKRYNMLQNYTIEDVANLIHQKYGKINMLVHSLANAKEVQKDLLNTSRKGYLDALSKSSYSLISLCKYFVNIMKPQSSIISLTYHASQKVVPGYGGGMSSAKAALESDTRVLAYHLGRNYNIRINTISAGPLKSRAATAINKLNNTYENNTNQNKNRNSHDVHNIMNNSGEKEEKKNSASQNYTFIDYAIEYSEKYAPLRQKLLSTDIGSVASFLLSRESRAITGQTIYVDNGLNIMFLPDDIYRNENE
Briefly: Inhibition of PfFabI. It counts as biochemical.

For assay [5], the target named is T2, hTopIB (Homo sapiens, UniProt P11387).
T2 sequence (P11387 1-765): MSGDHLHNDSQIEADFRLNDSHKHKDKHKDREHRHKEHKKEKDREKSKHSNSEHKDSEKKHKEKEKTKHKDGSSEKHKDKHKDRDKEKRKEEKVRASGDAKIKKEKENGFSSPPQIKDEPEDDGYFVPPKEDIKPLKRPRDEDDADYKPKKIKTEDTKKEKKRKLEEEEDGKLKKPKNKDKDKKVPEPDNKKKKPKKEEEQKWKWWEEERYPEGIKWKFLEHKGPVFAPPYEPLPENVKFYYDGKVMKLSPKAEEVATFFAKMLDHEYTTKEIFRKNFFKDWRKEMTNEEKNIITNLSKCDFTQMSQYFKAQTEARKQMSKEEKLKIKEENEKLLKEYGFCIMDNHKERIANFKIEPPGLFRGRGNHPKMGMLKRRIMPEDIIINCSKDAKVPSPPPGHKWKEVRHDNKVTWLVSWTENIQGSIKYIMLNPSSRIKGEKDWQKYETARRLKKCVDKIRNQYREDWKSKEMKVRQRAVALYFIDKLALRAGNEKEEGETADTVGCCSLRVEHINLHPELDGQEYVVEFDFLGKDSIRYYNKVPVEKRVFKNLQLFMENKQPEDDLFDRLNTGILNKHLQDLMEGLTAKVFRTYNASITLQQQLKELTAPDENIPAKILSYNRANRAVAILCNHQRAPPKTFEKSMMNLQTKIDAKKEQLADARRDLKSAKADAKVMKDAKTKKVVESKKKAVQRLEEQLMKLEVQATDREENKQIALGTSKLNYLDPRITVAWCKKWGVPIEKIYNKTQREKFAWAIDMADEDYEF
As to conditions: read-out: hTopIB EC50; relaxation activity; ref Carballeira et al., 2012; cited from earlier work.

The next assay deals with M. smegmatis mc^2 155. As to conditions: ref Morbidoni et al., 2006; cited from earlier work.
In another assay the test system is LdTopIB. As to conditions: ref Carballeira et al., cited from earlier work.
The subject of assay [6] is P. falciparum K1. Briefly: Toxicity to P. falciparum K1 strain. It counts as cell-based, Plasmodium falciparum. As to conditions: Plasmodium falciparum, K1, read-out: IC50 P. falciparum K1.
Assay [7] deals with T3, PfFabZ (Plasmodium falciparum, UniProt Q965D7).
T3 sequence (Q965D7 19-230): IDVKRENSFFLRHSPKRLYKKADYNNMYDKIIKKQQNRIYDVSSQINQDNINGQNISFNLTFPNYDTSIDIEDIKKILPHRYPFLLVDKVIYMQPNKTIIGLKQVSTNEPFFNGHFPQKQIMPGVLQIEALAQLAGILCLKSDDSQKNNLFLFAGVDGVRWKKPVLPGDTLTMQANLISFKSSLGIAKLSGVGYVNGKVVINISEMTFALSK
Briefly: Inhibition of PfFabZ. It counts as biochemical.

Assay [8] deals with P. falciparum K1. As to conditions: ref Suksamrarn et al., 2005; cited from earlier work.
For assay [9], the system named is Mycobacterium tuberculosis H37Rv. As to conditions: ref Morbidoni et al., 2006; cited from earlier work.
Another assay concerns Staphylococcus aureus. Particulars: ref Konthikamee et al., 1982; cited from earlier work.
The subject of assay [10] is hepatoma 7288 (HTC) cells. Particulars: ref Upreti et al., 1981; cited from earlier work.
The target of assay [11] is T2, hTopIB. The assay is described as follows: Inhibition of relaxation activity of hTopIB. It counts as biochemical.
For assay [12], the target named is T1, PfFabI. Particulars: with respect to crotonyl-CoA and the cofactor NADH; ref Tasdemir et al., 2010; cited from earlier work.
In the next assay the test system is Neisseria flava. Particulars: ref Konthikamee et al., 1982; cited from earlier work.
Assay [13] addresses T3, PfFabZ. As to conditions: with respect to the substrate; ref Tasdemir et al., 2010; cited from earlier work.
The test system of assay [14] is Leishmania infantum promastigotes. As to conditions: read-out: IC50 Leishmania infantum promastigotes; ref Carballeira et al., 2012; cited from earlier work.
For the next assay, the system named is Bacteroides fragilis. Particulars: ref Konthikamee et al., 1982; cited from earlier work.
The subject of assay [15] is InhA, the enoyl-ACP reductase. As to conditions: in words; ref Morbidoni et al., 2006; cited from earlier work.
In another assay the test system is Escherichia coli. Particulars: in words; ref Konthikamee et al., 1982; cited from earlier work.
Another assay deals with Pseudomonas aeruginosa. As to conditions: in words; ref Konthikamee et al., 1982; cited from earlier work.
In the next assay the test system is P. falciparum. As to conditions: in words; ref Kumaratilake et al., 1992; 1997; cited from earlier work.
Where [16] appears, read: read-out: LdTopIB EC50, relaxation activity, 2012.

Take `CC/C=C\C/C=C\C/C=C\CCCCCCCC(=O)O` [linolenic acid]: in assay [1], the “IC50 killing FCR3 strain of P. falciparum” value was 92 µg/mL.
Consider `CCCCCCCCCC(=O)O` [n-decanoic acid], for which, in assay [2], the “Motility of L. donovani promastigotes” value is listed as “inhibited the motility”.
For orientation: EC50 means the midpoint of the concentration-response curve. In the case of `CCCCCCCCCCCC#CC(=O)O` [2-TDA, 2-tetradecynoic acid], the IC50 is greater than 100 µM in assay [3]; 24.5 µM at PfFabG; 5.3 µM on PfFabI [4]; 24.7 µM in assay [2]; 122 µM in the assay with P. falciparum K1 [6]; 15.6 µM against PfFabZ [7]. Further, the EC50 at hTopIB [5] was greater than 100 µM; in the assay with LdTopIB (setting [16]) it was 67.8 ± 1.1 µM. In addition, the “MIC against M. smegmatis mc^2 155” value in the assay with M. smegmatis mc^2 155 was 266 µM (≈ 59.7 µg/mL).
In the case of `CCCCCCCCCCCCCCCCCCCC(=O)O` [n-eicosanoic acid, reference compound], the “Effectiveness towards L. donovani” value in assay [2] was “not effective”.
Take `C=CCCC#CCCCCCCCCCCCC(=O)O` [scleropyric acid]: the “IC50 K1 multidrug-resistant P. falciparum” value in the assay with P. falciparum K1 [8] is 7.2 µg/mL (≈ 25.9 µM).
Take `CCCCCCCCCCCCCC#CCCCCC(=O)O` [6-icosynoic acid]: in assay [2], the “EC50 L. donovani promastigotes” value was 1 to 6 µg/mL. For the same compound, the EC50 with LdTopIB (read-out: EC50 LdTopIB, 2009) was 36 to 49 µM.
`CCCCCCCCCCCCCC#CCCC(=O)O` [4-Octadecynoic acid]: in the assay with M. smegmatis mc^2 155, the “MIC against M. smegmatis mc^2 155” value is greater than 300 µM.
With `CCCCCCCCCCC#CCCCC(=O)O` [5-Hexadecynoic acid], the “MIC against M. smegmatis mc^2 155” value in the assay on M. smegmatis mc^2 155 is 80 µM (≈ 20.2 µg/mL).
For `CCCCCCCCCCCCCCCCCC(=O)O` [octadecanoic acid], the “MIC L. donovani promastigotes” value in [2] was 1.39 µmol/mL (≈ 395 µg/mL).
As to `CCCCC/C=C\C/C=C\CCCCCCCC(=O)O` [linoleic acid], the “IC50 killing FCR3 strain of P. falciparum” value in [1] is 76 µg/mL.
As to `CCCCCCCCCCCCCCCCC#CC(=O)O` [2-Nonadecynoic acid], the “MIC against Mycobacterium tuberculosis H37Rv” value in assay [9] is 20 to 25 µM. Moreover, the “MIC against M. smegmatis mc^2 155” value in the assay with M. smegmatis mc^2 155 is 35 µM (≈ 10.3 µg/mL).
Regarding `CCCCCCCCCCCC(=O)O` [n-dodecanoic acid], the “Motility of L. donovani promastigotes” value in assay [2] was “inhibited the motility”.
Turning to `CCCCCCCCCCCCCCCC(=O)O` [16:0, hexadecanoic acid, reference compound], the IC50 at PfFabG, against PfFabI [4], in the assay on P. falciparum K1 [6] and against PfFabZ [7] was greater than 100 µM each time. Moreover, the “Motility of L. donovani promastigotes” value in assay [2] is listed as “inhibited the motility”.
On to `CCCCCCCCCCCC#CCCC(=O)O` [4-Hexadecynoic acid], for which, in the assay with M. smegmatis mc^2 155, the “MIC against M. smegmatis mc^2 155” value is 30 µM (≈ 7.57 µg/mL).
Consider `CCCCCCCCCCCCCC#CC(=O)O` [2-HDA, 2-hexadecynoic acid], for which the IC50 is greater than 100 µM in assay [3]; 13.9 µM on PfFabG (read-out: IC50 PfFabG, Carballeira and Tasdemir, unpublished data); 1.5 µM on PfFabI [4] (read-out: IC50 PfFabI, Carballeira and Tasdemir, unpublished data); 17.8 µM in [2]; 361 ± 1 µM against hTopIB [11]; 41.2 µM in the assay with P. falciparum K1 [6]. Further, the IC50 in assay [14] was 14.9 µM. Also, the “MIC Staphylococcus aureus” value in the assay with Staphylococcus aureus was 21.4 µM (≈ 5.4 µg/mL). Moreover, the “LD50, growth of cultured hepatoma 7288 (HTC) cells” value in assay [10] was 35 to 85 µM. Further, in assay [9], the “MIC against Mycobacterium tuberculosis H37Rv” value is 20 to 25 µM. Also, the “Mode of inhibition of PfFabI” value at PfFabI [12] is “non-competitive”. The EC50 was greater than 100 µM on hTopIB [5] and 28.7 ± 1.3 µM with LdTopIB (setting [16]). For the same compound, the “MIC Neisseria flava” value with Neisseria flava is 21.4 µM (≈ 5.4 µg/mL). The “MIC against M. smegmatis mc^2 155” value in the assay on M. smegmatis mc^2 155 was 10 µM (≈ 2.52 µg/mL). Besides, the “Mode of inhibition of PfFabZ” value at PfFabZ [13] is recorded as “competitively inhibit”. For the same compound, in the assay on Bacteroides fragilis, the “MIC Bacteroides fragilis” value was 21.4 µM (≈ 5.4 µg/mL). In assay [15], the “Inhibition of InhA” value is “able to inhibit”. For the same compound, in the assay with Escherichia coli, the “Effectiveness against Escherichia coli” value was “not effective”. For the same compound, the “Effectiveness against Pseudomonas aeruginosa” value in the assay on Pseudomonas aeruginosa was “not effective”.
Turning to `CCCCCCCC/C=C\CCCCCCCC(=O)O` [oleic acid, 9-cis-Octadecenoic acid, reference compound], in [1], the “IC50 killing FCR3 strain of P. falciparum” value was 23 µg/mL. For the same compound, in assay [2], the “Motility of L. donovani promastigotes” value is “no effect” and the “MIC L. donovani promastigotes” value is 0.09 µmol/mL (≈ 25.4 µg/mL). The “Parasite killing of P. falciparum” value in the assay with P. falciparum was “negligible parasite killing”.
For `CCCCCCCCCCCCCCC#CCC(=O)O` [3-Octadecynoic acid], in the assay with M. smegmatis mc^2 155, the “MIC against M. smegmatis mc^2 155” value is 36 µM (≈ 10.1 µg/mL).
With `CCCCCCCCCCCCC#CCCCC(=O)O` [5-Octadecynoic acid], in the assay on M. smegmatis mc^2 155, the “MIC against M. smegmatis mc^2 155” value is 360 µM (≈ 101 µg/mL).
As for `CC[C@@]1(O)C(=O)OCc2c1cc1n(c2=O)Cc2cc3ccccc3nc2-1` [CPT, camptothecin, reference compound], the IC50 in [3] was 0.62 ± 0.13 µM. The EC50 with LdTopIB (setting [16]) was 0.67 ± 0.08 µM.
Regarding `CCCCCCCCCCCCCCCCC(=O)O` [n-heptadecanoic acid, reference compound], the “Effectiveness towards L. donovani” value in assay [2] is recorded as “not effective”.
`CCCCCCCCCC#CC(=O)O` [2-Dodecynoic acid]: the “MIC against M. smegmatis mc^2 155” value in the assay with M. smegmatis mc^2 155 was greater than 300 µM.
As to `CCCCCCCCCCCCCCCCCCCC#CC(=O)O` [2-Docosynoic acid], the “MIC against M. smegmatis mc^2 155” value with M. smegmatis mc^2 155 was greater than 300 µM.
For the compound `CCCCCCCCCCC#CCCCCC(=O)O` [6-heptadecynoic, 6-heptadecynoic acid], in assay [2], the “EC50 L. donovani promastigotes” value was 1 to 6 µg/mL.
`CCCCCCCCCCCCC#CCC(=O)O` [3-Hexadecynoic acid]: the “MIC against M. smegmatis mc^2 155” value with M. smegmatis mc^2 155 is 20 µM (≈ 5.05 µg/mL).
As to `CCCCCCCCCCCCCCCCCC#CC(=O)O` [2-Eicosynoic acid], the “MIC against M. smegmatis mc^2 155” value in the assay with M. smegmatis mc^2 155 was greater than 300 µM.
